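Interpolation was linear, between the two tested concentrations surrounding the appropriate level; five concentrations were tested over 48 hours in 96-well plates. GI50 marks 50% less growth. TGI is the concentration that stops growth completely.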
How the values were obtained:
Assay in all cases: NCI tumour cell line growth inhibition, 48 h
786-0 renal = system: 786-0 renal
SNB-75 CNS = system: SNB-75 CNS
NCI-H522 lung = system: NCI-H522 lung
HCT-116 colon = system: HCT-116 colon
HOP-92 NSCLC = system: HOP-92 NSCLC
U251 CNS = system: U251 CNS
RXF 393 renal = system: RXF 393 renal
MCF7 breast = system: MCF7 breast
MDA-MB-435 = system: MDA-MB-435
NCI/ADR-RES ovarian = system: NCI/ADR-RES ovarian

Row | Compound | TGI (786-0 renal) [µM] | TGI (SNB-75 CNS) [µM] | TGI (NCI-H522 lung) [µM] | TGI (HCT-116 colon) [µM] | TGI (HOP-92 NSCLC) [µM] | TGI (U251 CNS) [µM] | TGI (RXF 393 renal) [µM] | GI50 (786-0 renal) [µM] | GI50 (SNB-75 CNS) [µM] | GI50 (MCF7 breast) [µM] | TGI (MCF7 breast) [µM] | GI50 (NCI-H522 lung) [µM] | GI50 (HCT-116 colon) [µM] | GI50 (HOP-92 NSCLC) [µM] | GI50 (U251 CNS) [µM] | GI50 (MDA-MB-435) [µM] | TGI (MDA-MB-435) [µM] | GI50 (RXF 393 renal) [µM] | GI50 (NCI/ADR-RES ovarian) [µM] | TGI (NCI/ADR-RES ovarian) [µM]
1 | O=S1(=O)c2cc(S(=O)(=O)n3ccnc3)ccc2NC2=NCCCN21 | 99.6 | 88.1 | 30.9 | 85.8 | > 100 | 41.5 |  |  |  |  |  |  |  |  |  |  |  |  |  | 
2 | CCc1cccc(C(C)CC)c1NC(=O)C(=O)Cc1nc2ccccc2o1 (centres undefined) | > 50 | > 50 | > 50 | > 50 | > 50 | > 50 | > 50 |  |  |  |  |  |  |  |  |  |  |  |  | 
3 | COC(=O)/C(=N\NC(N)=O)C(C#N)c1ccccc1 (centres undefined) | > 100 | > 100 | > 100 | > 100 |  | > 100 | > 100 |  |  |  |  |  |  |  |  |  |  |  |  | 
4 | CC(=O)NCc1c(C(N)=O)ncn1Cc1ccccc1 | > 100 | > 100 |  | > 100 | > 100 | > 100 | > 100 |  |  |  |  |  |  |  |  |  |  |  |  | 
5 | COc1cc(/C=C2\NC(=O)C3Cc4c(OC)c(C)c(OC)c(OC)c4C2N3C)c(OC)c(C)c1OC (centres undefined) | > 100 | > 100 | > 100 | > 100 | > 100 | > 100 | > 100 |  |  |  |  |  |  |  |  |  |  |  |  | 
6 | Cc1ccc2[nH]c(C(=O)NN3C(=O)C(C)SC34CCC(C)CC4)c(-c3ccccc3)c2c1 (centres undefined) | 52.6 | 51.4 | 31.1 | 34.5 | 36 | 34.1 | 30.1 | 19 | 24.4 | 17.5 | > 100 | 13 | 15.2 | 16.7 | 15.7 | 16.5 | 35.4 | 13.7 |  | 
7 | C1C[OH+]CCNCC[OH+]CC[OH+]CCN1.N.[Cl-].[Pt+4] | > 100 | > 100 | 48.7 | > 100 | > 100 | > 100 | 90.3 | > 100 | 24.2 |  |  | 14.2 | 32.9 | 35.8 | > 100 |  |  | 22.8 |  | 
8 | Brc1ccc(C=NC23CC4CC(CC(C4)C2)C3)cc1 | > 100 | > 100 | > 100 | > 100 | > 100 | > 100 | > 100 |  |  |  |  |  |  |  |  |  |  |  |  | 
9 | CCCCCCCC(=O)OCC1OC(n2cc(F)c(=O)[nH]c2=O)C(N)C(O)C1O (centres undefined) | > 100 | > 100 | > 100 | > 100 | > 100 | > 100 | > 100 |  |  |  |  |  |  |  |  |  |  |  |  | 
10 | O=[N+]([O-])c1cc(I)cc(/C=N/NS(=O)(=O)c2ccc(Cl)cc2)c1O | 42.9 | 61.2 | 33.2 | 41.3 | 37.6 | 40.3 | 45.4 |  |  |  |  |  |  |  |  |  |  |  |  | 
11 | N#CC1(N2CCCC2)CCC2(CC1)OCCO2 | > 100 | > 100 | > 100 | > 100 | > 100 | > 100 | > 100 |  |  |  |  |  |  |  |  |  |  |  |  | 
12 | CCN1C(=O)N(CC)C2C1NN=c1s/c(=C\c3ccc(C(F)(F)F)cc3)c(=O)n12 (centres undefined) | > 39 | 2.74 | 4.13 | > 32.8 | 35.9 | > 41.6 |  | 1.23 | 0.18 | 0.338 | > 40 | 0.263 | 0.343 | 2.2 | 0.443 | 0.169 | 0.437 |  | 0.291 | 
13 | O=C(CC1(O)C(=O)Nc2ccc([N+](=O)[O-])cc21)c1ccncc1 (centres undefined) | > 100 | 98.8 | 71.5 | > 100 |  | 66.1 | 64.4 |  |  |  |  |  |  |  |  |  |  |  |  | 
14 | COc1cc2c(c(OC)c1OC)-c1c(c3ccc([N+](=O)[O-])cc3c(=O)n1CCCBr)C2=O | > 100 | > 100 | > 100 | > 100 |  | > 100 | > 100 | 35.1 | 80 | 0.0551 | 0.439 | 17 | 18.7 |  | 24.4 | > 100 | > 100 | 24.4 | 70.6 | > 100
15 | N#CC(C(=O)CCC(=O)Nc1cccc(C(F)(F)F)c1)c1ccccc1 (centres undefined) | > 100 | > 100 | > 100 | > 100 | > 100 | > 100 | > 100 |  |  |  |  |  |  |  |  |  |  |  |  | 
16 | CCC[CH2][Sn]1([CH2]CCC)[O]CC[S]1 | 1.7 | 1.92 | 0.187 | 2.9 | 2.19 | 1.64 | 0.332 | 0.516 | 0.61 |  |  | 0.041 | 1.16 | 0.656 | 0.564 |  |  | 0.156 |  | 
